Test results taken from patent US8541607B2, “Disulfide, sulfide, sulfoxide, and sulfone derivatives of cyclic sugars and uses thereof” (Lacer, S.A., priority 2003, dated 2013).
Like-named read-outs stand apart in the source and are kept apart here. Blank lines part the entries; values can stand above or below the molecule they belong to.

What was measured:
arterial rings = experiment: Test of vasorelaxation on arterial rings contracted with phenylephrine; assay type: cell-based; settings: read-out: EC50 (vasodilatation equal to 50% of the maximum tone)
Protocol: The method used in the assays is substantially the same as described in following references: • * Furchgot, R. F., “Methods in nitric oxide research”; Feelisch & Stamler, eds., John Wiley & Sons, Chichester, England, pp 567-581. • * Trongvanbichnam K., et al., Jpn. J. Pharmacol. 71 (1996); 167-173. • * Sales, E., at al., Eur. J. Pharmacol. 258 (1994); 47-55.
The different compounds are tested at 5 different concentrations, at a concentration range from 0.0001 to 10 mM, using from 6 to 9 arterial rings for each compound. The obtained results are compared to those from the isosorbide 5-mononitrate, which is used as reference product.
The results are shown in table 1 below and are provided as EC50 (effective concentration 50), which is the concentration of each of the tested, compounds yielding a vasodilatation equal to 50% of the maximum tone at which the artery ring has been contracted with 1 μM of Phenylephrine.

[1] = test system: heart (AVP-induced coronary vasoconstriction); experiment: In vivo protection against ischemia-reperfusion damage in the heart (arginine-vasopressin induced S-wave depression); settings: p.o.; for S-wave decrement: 1 h before AVP 0.3 U/kg, vehicle 46.2 ± 4.9
Protocol: Experiments were performed according to the model previously described by Hirata Y at al (Journal of Cardiovascular Pharmacology, 1998, 31: 322-326)
After a food fasting period of 6 hours, animals were divided into groups of at least 8 animals each. Doses of products were given by oral sounding 1 h before the ischemia induction. Animals were anaesthetized with pentobarbital (40 mg/kg, i.p.) and the standard limb lead II electrocardiogram was recorded to detect the S-wave depression. 0.3 U/kg arginine-vasopressin (AVP) (Sigma Chemicals, St Louis, Mo., USA) was injected into the carotid artery to induce vasoconstriction of small coronary arteries and increase in coronary resistance. In all the groups received AVP 60 min after, the test drug. In all groups, after AVP injection of 10 minutes ECG recording was performed.
The results are shown in table 16 and are expressed as S-wave decrements (μvolts).

[2] = test system: platelets (Human Platelet Rich Plasma); experiment: In vitro inhibition of ADP-induced platelet aggregation; assay type: cell-based; settings: submaximal ADP (1-4 μM), mean ± s.d.
Protocol: The method used in the assays is substantially the same as described in following reference: • * Sales, E., at al., Br. J. Pharmacol. 112 (1994); 1071-1076.
The compounds are tested at four different concentrations, using platelet rich plasma from not less than 6 different healthy human donors. The results obtained are compared to those from 5-isosorbide mononitrate, which is used as reference product.
The results are shown in table 2 and are expressed as IC50 (inhibitory concentration 50), which is the concentration of each of the tested compounds yielding an inhibition equal to 50% of the aggregation obtained with a submaximal concentration (1-4 μM) of ADP (a submaximal concentration of ADP is the minimal amount of ADP which produces the maximal aggregation).

[3] = test system: heparinized plasma (plasma lipoproteins); experiment: Inhibition of plasma oxidation induced by Cu2+ (absorbance 234 nm); assay type: biochemical; settings: compounds at 10 μM; 50 μM CuSO4; mean ± s.e.m.
Protocol: The method used in the assays to determine the effect of compounds on the capacity of oxidation of the plasma is substantially the same as described in Spranger T. et al., Chem Phys Lipids 1998; 91: 39-52.
Lipoprotein oxidation induced in vitro in plasma is expected to represent a relevant model of the lipoprotein oxidation in the arterial wall. Oxidation of plasma lipoproteins was assessed as the capacity of oxidation of heparinized plasma and was measured by spectrophotometry as in increase in absorbance at 234 nm. The compounds were added in vitro to determine their inhibitory activity over the capacity of oxidation of plasma induced by Cu^2+ (CuSO4). Heparinized plasma was diluted with phosphate-buffered saline solution (PBS) containing 0.16 M NaCl, and the oxidation was started by 50 μM CuSO4. Experimental samples were incubated at 37° C. and the increase in absorbance at 234 nm was automatically recorded every 15 min for at least 12 h. The effect of compounds over the capacity of oxidation of plasma induced by Cu^2+ was tested at 7 different concentrations using heparinizaded plasma from 7 different healthy donors.

HUVEC cells = experiment: In vitro protection against cytotoxicity induced by oxygen radicals (peroxynitrite), XTT method; assay type: cell-based, human; settings: HUVEC pre-treated with 50 μM compound for one hour, then 800 μM peroxynitrite overnight
From the text: The method used is substantially the same as described by Caveda L., et al. (J. Clin. Invest. […]; 98: 886-893).
For the determination of the capacity to inhibit the cytotoxicity induced by oxygen radicals Human Umbilical Vein Endothelial Cells (HUVEC) were used. HUVEC were isolated and cultured in M199 and 20% FCS (Fetal Calf Serum).
Test XTT assay is based on […] by the metabolically active cells of the salt of tetrazolio XTT to form an orange product, the formazan dye formed is soluble and is directly quantified using an spectrophotometer.
HUVEC cells were cultivated until a sub-confluence status in a 96 well tissue culture plate and pre-treated with 50 μM of the compound for one hour. After that, cells were treated with 800 μM of peroxynitrite for an overnight.
After overnight incubation cells were incubated with the yellow XTT solution (final concentration 0.3 mg/ml) for 4 hours. After this incubation period, orange formazan solution was formed, which was spectrophotometrically quantified using an ELISA plate reader at 450 nm
The results are shown in table 15 and are expressed as percentage of death cells.

[4] = test system: Rats, left carotid artery thrombosis (FeCl3); experiment: In vivo antithrombotic effect, FeCl3 carotid artery thrombosis; set-up: species or system rat; settings: single oral dose of 100 mg/Kg; no occlusion during 60 min after FeCl3 patch
Protocol: The method used is substantially the same as described by Kurz (Kurz K. D., et al., Thromb. Res. 1990, 60:269-280) and modified by Feuerstein (Feuerstein G. Z., et al., Artherioscler. Thromb. Vase. Biol. 1999, 19: 2554-25562).
Rats received a single oral dose of 100 mg/Kg of the compounds.
Forty-five minutes after dosing rats were anaesthetized with sodium pentobarbital (40 mg/kg, i.p.) and they were placed later dorsally on a heated (37° C.) surgical board.
The left carotid artery was isolated and a Parafilm 4 sheet (7×20 mm, American National Can) was placed under it. An electromagnetic sounding of flow (Transonic Systems Inc.) was placed on the artery to measure blood flow.
(§1) Sixty minutes after product administration, a paper patch saturated with FeCl3 solution (70%) was placed (and not removed for the whole duration of the experiment) on the left carotid artery downstream from the sounding of flow to initiate thrombosis. The blood flow was controlled during the 60 min later to the application of the patch in the artery.
The vessel was considered totally occluded by the thrombus formed when no blood flow was detected (0.0 ml/min). In this model, thrombus formation usually takes place within 15 to 20 minutes in non-treated animals.

[5] = test system: Rats, left carotid artery thrombosis (FeCl3); experiment: In vivo synergistic antithrombotic effect, FeCl3 carotid artery thrombosis, single drugs and combinations; set-up: species or system rat; settings: for Rate of animals with thrombotic occlusion: control 1
Protocol: The method used is substantially the same as described by Kurz (Kurz K. D., at al., Thromb. Res. 1990, 60: 269-280) and modified by Feuerstein (Feuerstein G. Z., et al., Artherioscler, Thromb. Vasc. Biol. 1999, 19: 2554-25562). […]
Forty-five minutes after dosing administration, rats were anaesthetized with sodium pentobarbital (40 mg/kg, i.p.) and they were placed later dorsally on a heated (37° C.) surgical board.
The left carotid artery was isolated and a Parafilm M sheet (7×20 mm, American National Can) was placed under it. An electromagnetic sounding of flow (Transonic Systems Inc.) was placed on the artery to measure blood flow.
as §1
The vessel was considered totally occluded by the thrombus formed when no blood flow was detected (0.0 ml/min). In this model, occlusive thrombus formation usually takes place within 15 to 20 minutes in non-treated animals.
The fractional product concept was used to identify synergy between the compounds. In accordance with this concept, if we consider the full protection of the animal as:
[formula] where A is the rate of animals with thrombotic occlusion in treated group; and B is the rate of animals with thrombotic occlusion in the control group.
For two drugs that act of independent way:
[formula] where A1 is the rate of animals with thrombotic occlusion in the treatment group A1; A2 is the rate of animals with thrombotic occlusion in the treatment group A2; and B is the rate of animals with thrombotic occlusion in the control group
If the protection obtained with the combination of the drugs is higher than the fractional inhibition for two compounds acting independently then synergism is considered to occur.
The results are shown in table 14 and are expressed as rate of animals with thrombotic occlusion in each group.

LDL = experiment: Inhibition of LDL oxidation induced by haemin and H2O2 (conjugated dienes, 234 nm); assay type: biochemical, human; settings: compounds at 10 μM; 2.5 μM haemin and 5 μM H2O2; mean ± s.e.m.
From the text: The method used in the assays to determine the effect of the compounds on LDL oxidation is substantially the same as described in the following references: • Sprenger T., et al., Chem. Phys. Lipids 1998; 91:39-52 • Lynch S. M., et al., Biochim. Biophys. Acta 2000; 1485:11-22 • Pedreño J., et al., Thromb. Res. 2000; 99: 51-60.
The method used in the assays to isolate LDL particles from fresh human plasma is substantially the same as described in Pedreño J., et al., Atherosclerosis 2001; 155: 99-112.
Oxidative modification of low-density lipoprotein (LDL) is currently believed to be a central event it the development of atherosclerotic cardiovascular disease. The exposition of LDL to globin-free haemin (the complex of ferric ion (Fe^3+) with protoporphyrin IX), derived from the haemoglobin in circulating erythrocytes, serves as a physiological source of pro-oxidant Fe^3+ capable to promoting LDL oxidation. The compounds were added in vitro to determine their inhibitory activity on LDL oxidation induced by haemin and H2O2. LDL at a final protein concentration of 0.2 mg/ml was incubated in the presence of 2.5 μM haemin and 5 μM H202. Oxidative modification of LDL particles was assessed by measurement of conjugated dienes. Experimental samples were incubated at 37° C. and the increase in absorbance at 234 nm was automatically recorded every 5 min for at least 5 h. The effect of compounds on the LDL oxidation induced by haemin was tested at 7 different concentrations using LDL preparations from 7 different healthy donors.

[6] = artery ring contracted with 1 μM Phenylephrine, mean ± s.d.
[7] = Acetyl salicylic acid 100 mg/Kg/day, oral, for 3 days
[8] = Clopidogrel 1.5 mg/Kg/day, oral for 3 days

Molecule: O=[N+]([O-])O[C@@H]1CO[C@H]2[C@@H]1OC[C@@H]2SS[C@H]1CO[C@H]2[C@@H]1OC[C@H]2O[N+](=O)[O-] [(2), 5,5′-dinitrato-2,2′-dithiodiisosorbide]
- EC50 (arterial rings): 5.3 ± 1 µM
- IC50 [2]: 10 ± 7 µM
- % of increment of lag phase with respect to control (plasma oxidation) [3]: 7 ± 1%
- % of death cells (HUVEC cells): 80%

Molecule: CS[C@H]1CO[C@H]2[C@@H]1OC[C@H]2O[N+](=O)[O-] [(3), 2-methylthioisosorbide 5-mononitrate]
- EC50 (arterial rings; [6]): 43 ± 6 µM
- IC50 [2]: 410 ± 90 µM
- % of animals fully protected [4]: 100%
- % of death cells (HUVEC cells): 80%

Molecule: C[S@@+]([O-])[C@H]1CO[C@H]2[C@@H]1OC[C@H]2O[N+](=O)[O-] [(4), 2-[(R)-methylsulfinyl]isosorbide 5-mononitrate]
- EC50 (arterial rings; [6]): 338 ± 10 µM
- IC50 [2]: 1000 ± 10 µM
- % of animals fully protected [4]: 80%
- Protection of S-wave decrement ([1]; 20 mg/kg): 21%
- S-wave decrement ([1]; 20 mg/kg): 36.5 ± 11.6 μV
- Protection of S-wave decrement ([1]; 100 mg/kg): 87%
- S-wave decrement ([1]; 100 mg/kg): 5.9 ± 3.9 μV

Molecule: C[S@+]([O-])[C@H]1CO[C@H]2[C@@H]1OC[C@H]2O[N+](=O)[O-] [(4bis), 2-[(S)-methylsulfinyl]isosorbide 5-mononitrate]
- IC50 [2]: 850 ± 150 µM

Molecule: CC(=O)Oc1ccccc1C(=O)O [Acetyl salicylic acid]
- % of animals protected [5, 7]: (50%)
- Rate of animals with thrombotic occlusion [5, 7]: 0.50

Molecule: COC(=O)[C@H](c1ccccc1Cl)N1CCc2sccc2C1 [Clopidogrel]
- % of animals protected [5, 8]: (50%)
- Rate of animals with thrombotic occlusion [5, 8]: 0.50

Molecule: O=[N+]([O-])O[C@@H]1CO[C@H]2[C@@H]1OC[C@@H]2O [Isosorbide 5-mononitrate, reference compound]
- EC50 (arterial rings; [6]): 920 ± 200 µM
- IC50 [2]: 2680 ± 330 µM
- % of increment of lag phase with respect to control (LDL oxidation) (LDL): 0%
- % of increment of lag phase with respect to control (plasma oxidation) [3]: 0%

Further lines, with some results ahead:

- EC50 (arterial rings; [6]): 24 ± 5 µM
Molecule: 2-thioisosorbide [(9)]
- Protection of S-wave decrement ([1]; 20 mg/kg): 64%
- S-wave decrement ([1]; 20 mg/kg): 16.5 ± 9.8 μV
- Protection of S-wave decrement ([1]; 100 mg/kg): 79%
- S-wave decrement ([1]; 100 mg/kg): 9.7 ± 4.6 μV

- EC50 (arterial rings; [6]): 1.2 ± 0.1 µM
- IC50 [2]: 1.9 ± 0.5 µM
Molecule: O=NS[C@H]1CO[C@H]2[C@@H]1OC[C@H]2O[N+](=O)[O-] [(6), S-nitroso-2-thioisosorbide 5-mononitrate]

- EC50 (arterial rings; [6]): 50 ± 9 µM
- IC50 [2]: 580 ± 21 µM
Molecule: O=[N+]([O-])O[C@@H]1CO[C@H]2[C@@H]1OC[C@@H]2SC1CCCCO1 (stereo partly drawn) [(7), 2-(tetrahydropyran-2-yl-thio)isosorbide 5-mononitrate]
